Experimental data as given in US20130209446A1, “Copy Number Variant-Dependent Genes As Diagnostic Tools, Predictive Biomarkers And Therapeutic Targets” (Board of Trustees of the University of Arkansas, priority 2010, published 2013).

Tests used:
Test in all cases: MTT cell proliferation assay, PU-H71 titration
Format in all cases: cell-based
[1] = test system: L363; conditions: Homo sapiens, L-363, L363 myeloma cell line, 72 hours, without thrombin
Procedure: (§1) Cell growth inhibition of an anticancer agent (PU-H71) (6) was tested in a panel of myeloma cell lines. HMCLs were treated with a titration of the anti-cancer reagent PU-H71 (0 to 4,000 nM) in vitro for 72 hours. The MTT assay was utilized to detect proliferation of each cell line. The half maximal inhibitory concentration (IC50) of PU-H71 was calculated using OriginPro 7.5 statistic software.

[2] = test system: XG1; conditions: Homo sapiens, XG1 myeloma cell line, 72 hours, without thrombin
Procedure: as §1

[3] = test system: MM144; conditions: Homo sapiens, MM144 myeloma cell line, 72 hours, without thrombin
Procedure: as §1

[4] = test system: INA6; conditions: Homo sapiens, INA-6, INA6 myeloma cell line, 72 hours, without thrombin
Procedure: as §1

[5] = test system: JJN3; conditions: Homo sapiens, JJN-3, JJN3 myeloma cell line, 72 hours, without thrombin
Procedure: as §1

[6] = test system: OPM2; conditions: Homo sapiens, OPM-2, OPM2 myeloma cell line, 72 hours, without thrombin
Procedure: as §1

[7] = test system: KMS28PE; conditions: Homo sapiens, KMS-28PE, KMS28PE myeloma cell line, 72 hours, without thrombin
Procedure: as §1

[8] = test system: ARK; conditions: Homo sapiens, ARK myeloma cell line, 72 hours, without thrombin
Procedure: as §1

[9] = test system: KMS28BM; conditions: Homo sapiens, KMS-28BM, KMS28BM myeloma cell line, 72 hours, without thrombin
Procedure: as §1

[10] = test system: RPMI8226; conditions: Homo sapiens, RPMI-8226, RPMI8226 myeloma cell line, 72 hours, without thrombin
Procedure: as §1

[11] = test system: OCI-MY5; conditions: Homo sapiens, OCI-MY5 myeloma cell line, 72 hours, without thrombin
Procedure: as §1

[12] = test system: H929; conditions: Homo sapiens, NCI-H929, H929 myeloma cell line, 72 hours, without thrombin
Procedure: as §1

[13] = test system: U266; conditions: Homo sapiens, U-266, U266 myeloma cell line, 72 hours, without thrombin
Procedure: as §1

IC50 [3]: 306 nM
IC50 [10]: 485 nM
IC50 [11]: 164 nM
IC50 [12]: 210 nM
IC50 [13]: 198 nM
Structure (SMILES): CC(C)NCCCn1c(Sc2cc3c(cc2I)OCO3)nc2c(N)ncnc21 [PU-H71]
IC50 [1]: 232 nM
IC50 [2]: 238 nM
IC50 [4]: 141 nM
IC50 [5]: 800 nM
IC50 [6]: 415 nM
IC50 [7]: 344 nM
IC50 [8]: 339 nM
IC50 [9]: 164 nM
